Brc1cnc2[nH]ccc2c1
solubility (mole fraction)
Settings	in acetonitrile	in dichloromethane	in ethanol	in ethyl acetate	in isopropanol	in methanol	in methyl acetate	in n-butanol	in n-hexane	in n-propanol
278.15 K	0.00224	0.00083	0.0078	0.0161	0.00779	0.00595	0.0222	0.0154	0.00015	0.00916
283.15 K	0.00304	0.00133	0.00958	0.0184	0.00915	0.00673	0.0253	0.0177	0.00017	0.0109
288.15 K	0.00366	0.00216	0.0106	0.02	0.0106	0.00779	0.0279	0.0202	0.00019	0.0123
293.15 K	0.00436	0.00333	0.0125	0.0225	0.0123	0.00882	0.0312	0.0228	0.00021	0.0145
298.15 K	0.00519	0.00505	0.0139	0.0258	0.0143	0.00972	0.0347	0.0251	0.00024	0.0165
303.15 K	0.00616	0.00749	0.0158	0.0286	0.0165	0.0111	0.0381	0.0278	0.00027	0.0188
308.15 K	0.00726	0.0106	0.0177	0.0321	0.019	0.0124	0.0419	0.0312	0.0003	0.0209
313.15 K	0.00858	0.0148	0.0198	0.0363	0.0217	0.0138	0.0459	0.0345	0.00034	0.0237
318.15 K	0.00981	–	0.0222	0.0404	0.0252	0.0153	0.0509	0.0377	0.00036	0.0268
323.15 K	0.0116	–	0.0245	0.045	0.0275	0.0171	0.0549	0.0415	0.00041	0.0298

From BigSolDB 2.1
